Key:
[1] = Optical properties of the fluorophores measured in ethanol, compared to ICG; assay type: physicochemical; conditions: for Φ^a (%): compared to ICG
Outline: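 Optical properties of the fluorophores were measured in ethanol and compared with a reference dye. Read-outs were absorption maximum, emission maximum, Stokes shift, quantum yield and molar extinction coefficient. The text gives no concentrations, instrument, temperature, replicates or derivation method.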

[2] = Solvatochromism: absorption maximum in different solvents; assay type: physicochemical

Row | SMILES | Stokes Shift (nm) [1] | λabs (nm) [1] | λem (nm) [1] | ϵ (cm^−1 M^−1) [1] | Φ^a (%) [1] | λabs (nm) Acetonitrile [2] | λabs (nm) DMSO [2] | λabs (nm) Ethanol [2] | λabs (nm) Methanol [2]
1 | CCN1C(=CC=C2CC(C(C)(C)C)CC(C=C(C#N)C(=O)O)=C2N2CCC(CO)CC2)C(C)(C)c2ccccc21 (stereo not drawn) [Compound 84] | 124 nm | 660 nm | 784 nm | 75,100 cm^−1 M^−1 | 18.6% | 640 nm | 665 nm | 660 nm | 650 nm
2 | CCN1C(=CC=C2CC(c3ccccc3)CC(C=C(C#N)C(=O)O)=C2Cl)C(C)(C)c2cc(Cl)ccc21 (stereo not drawn) [Compound 69] | 11 nm | 790 nm | 801 nm | 136,500 cm^−1 M^−1 | 11.7% |  |  |  | 
3 | CCN1C(=CC=C2CC(c3ccccc3)CC(C=C(C#N)C(=O)O)=C2Cl)C(C)(C)c2ccccc21 (stereo not drawn) [Compound 66] | 15 nm | 780 nm | 795 nm | 155,700 cm^−1 M^−1 | 12.4% |  |  |  | 
4 | CCN1C(=CC=C2CC(C(C)(C)C)CC(C=C(C#N)C(=O)O)=C2Cl)C(C)(C)c2cc(Cl)ccc21 (stereo not drawn) [Compound 62] | 15 nm | 790 nm | 805 nm | 114,100 cm^−1 M^−1 | 11.5% |  |  |  | 
5 | CN1C(=CC=C2CCCC(C=C(C#N)C(=O)O)=C2Cl)C(C)(C)c2cc(F)ccc21 [Compound 49] | 15 nm | 780 nm | 795 nm | 195,100 cm^−1 M^−1 | 12.6% |  |  |  | 
6 | CCCCN1/C(=C/C=C2\CCCC(/C=C(\C#N)C(=O)O)=C2Cl)Sc2ccccc21 [Compound 57] | 14 nm | 800 nm | 814 nm | 198,700 cm^−1 M^−1 | 10.5% |  |  |  | 
7 | CN1C(=CC=C2CCCC(C=C(C#N)C(=O)O)=C2N2CCC(CO)CC2)C(C)(C)c2cc(Br)ccc21 [Compound 81] | 126 nm | 665 nm | 791 nm | 64,200 cm^−1 M^−1 | 18.3% |  |  |  | 
8 | CCN1C(=CC=C2CCCC(C=C(C#N)C(=O)O)=C2Cl)C(C)(C)c2cc(Cl)ccc21 [Compound 54] | 15 nm | 790 nm | 805 nm | 156,500 cm^−1 M^−1 | 12.0% |  |  |  | 
9 | CCN1C(=CC=C2CC(c3ccccc3)CC(C=C(C#N)C(=O)O)=C2Cl)C(C)(C)c2cc(F)ccc21 (stereo not drawn) [Compound 67] | 16 nm | 780 nm | 796 nm | 124,700 cm^−1 M^−1 | 12.3% |  |  |  | 
10 | CCCCN1C(=CC=C2CC(C(C)(C)C)CC(C=C(C#N)C(=O)O)=C2Cl)C(C)(C)c2c1ccc1ccccc21 (stereo not drawn) [Compound 64] | 8 nm | 820 nm | 828 nm | 146,300 cm^−1 M^−1 | 7.3% |  |  |  | 
11 | CCN1C(=CC=C2CC(C(C)(C)C)CC(C=C(C#N)C(=O)O)=C2N2CCC(CO)CC2)C(C)(C)c2cc(Cl)ccc21 (stereo not drawn) [Compound 85] | 143 nm | 645 nm | 788 nm | 60,000 cm^−1 M^−1 | 19.9% |  |  |  | 
12 | CCN1C(=CC=C2CCCC(C=C(C#N)C(=O)O)=C2Cl)C(C)(C)c2ccccc21 [Compound 47] | 20 nm | 780 nm | 800 nm | 179,500 cm^−1 M^−1 | 12.3% |  |  |  | 
13 | CCN1C(=CC=C2CC(C(C)(C)C)CC(C=C(C#N)C(=O)O)=C2Cl)C(C)(C)c2cc(Br)ccc21 (stereo not drawn) [Compound 61] | 15 nm | 790 nm | 805 nm | 123,500 cm^−1 M^−1 | 11.4% |  |  |  | 
14 | CCN1C(=CC=C2CC(C(C)(C)C)CC(C=C(C#N)C(=O)O)=C2Cl)C(C)(C)c2ccccc21 (stereo not drawn) [Compound 58] | 17 nm | 780 nm | 797 nm | 138,200 cm^−1 M^−1 | 12.7% |  |  |  | 
15 | CCN1C(=CC=C2CC(c3ccccc3)CC(C=C(C#N)C(=O)O)=C2Cl)C(C)(C)c2cc(Br)ccc21 (stereo not drawn) [Compound 68] | 15 nm | 790 nm | 805 nm | 167,800 cm^−1 M^−1 | 12.1% |  |  |  | 
16 | CCN1C(=CC=C2CCCC(C=C(C#N)C(=O)O)=C2Cl)C(C)(C)c2cc(Br)ccc21 [Compound 53] | 17 nm | 790 nm | 807 nm | 171,000 cm^−1 M^−1 | 11.8% |  |  |  | 
17 | CCCCN1/C(=C/C=C2\CCCC(C=C(C#N)C#N)=C2Cl)C(C)(C)c2c1ccc1ccccc21 [Compound 76] | 6 nm | 820 nm | 826 nm | 146,400 cm^−1 M^−1 | 8.8% | 820 nm | 835 nm | 820 nm | 820 nm

Row | SMILES | Stokes Shift (nm) [1] | λabs (nm) [1] | λem (nm) [1] | ϵ (cm^−1 M^−1) [1] | Φ^a (%) [1] | λabs (nm) Acetonitrile [2] | λabs (nm) DMSO [2] | λabs (nm) Ethanol [2] | λabs (nm) Methanol [2]
18 | CCN1C(=CC=C2CCCC(C=C(C#N)C(=O)O)=C2N2CCC(CO)CC2)C(C)(C)c2cc(Br)ccc21 [Compound 82] | 124 nm | 675 nm | 794 nm | 61,000 cm^−1 M^−1 | 17.3% | 640 nm | 670 nm | 675 nm | 665 nm
19 | CCCCN1C(=CC=C2CCCC(C=C(C#N)C(=O)O)=C2Cl)C(C)(C)c2ccccc21 [Compound 48] | 17 nm | 785 nm | 802 nm | 181,400 cm^−1 M^−1 | 12.1% |  |  |  | 
20 | CN1C(=CC=C2CC(C(C)(C)C)CC(C=C(C#N)C(=O)O)=C2Cl)C(C)(C)c2c1ccc1ccccc21 (stereo not drawn) [Compound 63] | 6 nm | 815 nm | 821 nm | 167,100 cm^−1 M^−1 | 9.8% |  |  |  | 
21 | CCN1C(=CC=C2CCCC(C=C(C#N)C#N)=C2Cl)C(C)(C)c2cc(Cl)ccc21 [Compound 75] | 15 nm | 790 nm | 805 nm | 145,400 cm^−1 M^−1 | 11.5% |  |  |  | 
22 | CCCCN1C(=CC=C2CCCC(C=C(C#N)C(=O)O)=C2Cl)C(C)(C)c2cc(F)ccc21 [Compound 51] | 17 nm | 785 nm | 802 nm | 176,400 cm^−1 M^−1 | 11.9% |  |  |  | 
23 | CCN1C(=CC=C2CC(C(C)(C)C)CC(C=C(C#N)C(=O)O)=C2Cl)C(C)(C)c2cc(F)ccc21 (stereo not drawn) [Compound 59] | 19 nm | 780 nm | 799 nm | 123,000 cm^−1 M^−1 | 12.5% |  |  |  | 
24 | CCCCN1C(=CC=C2CCCC(C=C(C#N)C(=O)O)=C2Cl)C(C)(C)c2cc(Cl)ccc21 [Compound 55] | 13 nm | 795 nm | 808 nm | 115,500 cm^−1 M^−1 | 11.5% |  |  |  | 
25 | CCCCN1C(=CC=C2CC(C(C)(C)C)CC(C=C(C#N)C(=O)O)=C2Cl)C(C)(C)c2cc(F)ccc21 (stereo not drawn) [Compound 60] | 18 nm | 785 nm | 803 nm | 137,400 cm^−1 M^−1 | 12.6% |  |  |  | 
26 | CCCCN1C(=CC=C2CCCC(C=C(C#N)C#N)=C2Cl)C(C)(C)c2cc(F)ccc21 [Compound 73] | 17 nm | 785 nm | 802 nm | 168,800 cm^−1 M^−1 | 12.2% |  |  |  | 
27 | CCCCN1/C(=C/C=C2\CCCC(/C=C(\C#N)C(=O)O)=C2Cl)C(C)(C)c2c1ccc1ccccc21 [Compound 56] | 7 nm | 820 nm | 827 nm | 151,100 cm^−1 M^−1 | 9.6% |  |  |  | 
28 | CCCCN1C(=CC=C2CCCC(C=C(C#N)C#N)=C2Cl)C(C)(C)c2ccccc21 [Compound 72] | 15 nm | 785 nm | 800 nm | 143,900 cm^−1 M^−1 | 12.1% |  |  |  | 
29 | CCCCN1/C(=C/C=C2\CC(C(C)(C)C)CC(/C=C(\C#N)C(=O)O)=C2Cl)Sc2ccccc21 (stereo not drawn) [Compound 65] | 12 nm | 800 nm | 812 nm | 192,000 cm^−1 M^−1 | 10.5% |  |  |  | 
30 | CN1C(=CC=C2CCCC(C=C(C#N)C(=O)O)=C2Cl)C(C)(C)c2cc(Br)ccc21 [Compound 52] | 16 nm | 790 nm | 806 nm | 153,600 cm^−1 M^−1 | 11.8% |  |  |  | 
31 | CCN1C(=CC=C2CCCC(C=C(C#N)C#N)=C2Cl)C(C)(C)c2ccccc21 [Compound 71] | 17 nm | 780 nm | 797 nm | 144,100 cm^−1 M^−1 | 12.1% |  |  |  | 
32 | CCN1C(=CC=C2CCCC(C=C(C#N)C(=O)O)=C2N2CCC(CO)CC2)C(C)(C)c2cc(Cl)ccc21 [Compound 83] | 122 nm | 670 nm | 792 nm | 75,300 cm^−1 M^−1 | 17.4% |  |  |  | 
33 | CCN1C(=CC=C2CCCC(C=C(C#N)C(=O)O)=C2Cl)C(C)(C)c2cc(F)ccc21 [Compound 50] | 14 nm | 780 nm | 799 nm | 165,300 cm^−1 M^−1 | 12.2% |  |  |  | 

Source: patent publication US20250152751A1, “RED-SHIFTED FLUOROPHORES AND METHODS OF USING THE SAME” (GEORGIA STATE UNIVERSITY RESEARCH FOUNDATION, INC., priority 2022, published 2025)
